The values that follow come from PubChem BioAssay AID1850 (Southern Research Specialized Biocontainment Screening …, 2009).

pIC50: −log10 of the molar value.

For this experiment, the system named is Salmonella Typhi PhoP-promoter GFP reporter, fluorescence, 4 h. As to the kind of experiment: PhoP regulon inhibitors, Salmonella typhi PhoP promoter GFP reporter, confirmatory (AID 1850).

For the molecule `CCCCCCCCCCCCCCCC[N+](C)(C)CC`, the pIC50 (usually −log10 of the IC50, conventionally taken in molar units) was 4.73.

Turning to `c1cc2c(cc1C1CCCCC1)c1c3n2CCCNC3CCC1` (stereo not given), the pIC50 was 4.51.

On to `Clc1ccc(Nc2ccc(NCc3ccccc3)nn2)cc1`, for which the negative-log IC50 (pIC50) is 3.99.

With `COc1ccc(C2NCCc3c2[nH]c2ccccc32)cc1COc1ccc(F)cc1` (stereo not given), the negative-log IC50 (pIC50) was 4.41.

On to `O=C(NC(=S)NNC(=O)c1ccco1)c1ccc(Br)cc1`, for which the pIC50 is 4.05.

Regarding `COc1cc(/C=C/[N+](=O)[O-])ccc1O`, the pIC50 is 3.99.

Turning to `CC(C(=O)NC1C=CS(=O)(=O)C1)N1C(=O)/C(=C/c2cccc(Cl)c2)SC1=S` (stereo not given), the pIC50 was 4.16.

As to `Cc1cc(O)c2c(c1)C(=O)C13C(=C2O)C(=O)[C@H]2[C@@H](O)[C@@H]1[C@H]1[C@H](O)[C@@H]3C(=O)C3=C(O)c4c(O)cc(C)cc4C(=O)C312` (stereo not given in full), the pIC50 was 5.29.

Turning to `CN1CC=C(/C=C/c2ccc(-c3ccccc3)cc2)CC1`, the pIC50 was 4.22.

For the molecule `CCCCC(=O)NC(=S)NNC(=O)CC`, the pIC50 is 4.15.

Regarding `CCc1ccc(N2CC(C(=O)N/N=C/c3cc([N+](=O)[O-])ccc3O)CC2=O)cc1` (stereo not given), the pIC50 is 4.25.

For the molecule `NC1CCN(c2c(F)cc3c(=O)c(C(=O)O)cn(C4CC4)c3c2Cl)C1` (stereo not given), the pIC50 was over 6.64.

Take `O=C(C[n+]1ccc(-c2ccccc2)cc1)Nc1ccc([N+](=O)[O-])cc1`: the pIC50 was 4.39.

Regarding `CN(O)/C=c1/ccc2c(n1)C(=O)C=CC=2`, the pIC50 is 4.46.

As to `CO[C@H]1C=CO[C@@]2(C)Oc3c(C)c(O)c4c(O)c(c5c(c4c3C2=O)NC2(CCN(CC(C)C)CC2)N=5)=NC(=O)C(C)=CC=C[C@H](C)[C@H](O)[C@@H](C)[C@@H](O)[C@@H](C)[C@H](OC(C)=O)[C@@H]1C`, the pIC50 was 5.82.

Turning to `N=c1c2c(n(Cc3ccc(Cl)cc3)c3c1CCC3)CCC2`, the pIC50 was 4.10.

Regarding `Cc1ccc(C(C[N+](=O)[O-])n2nc(C)cc2C)cc1` (stereo not given), the pIC50 is 4.12.

For the molecule `S=C(Nc1ccc(Cl)c(Cl)c1)NC1CCN(Cc2ccccc2)CC1`, the pIC50 is 4.47.

With `CN(C)CCCNc1cc(C(C)(C)C)nc2c(-c3ccc(Cl)cc3)cnn12`, the negative logarithm of the IC50 (pIC50) was 4.72.

Consider `C/C(=C\C(=O)OCCCCCCCCC(=O)O)C[C@@H]1OC[C@H](C[C@@H]2O[C@H]2[C@@H](C)[C@H](C)O)[C@@H](O)[C@H]1O`, for which the pIC50 is 4.88.

With `NC1=NC[C@H](Cc2ccc(O)cc2)N1CCc1cccc2ccccc12`, the pIC50 is 4.30.

Consider `O=C1C2=C(Nc3ccccc3SC2c2ccco2)c2ccccc21` (stereo not given), for which the pIC50 was 4.91.

Consider `O=C(CC(=O)c1cc(Cl)ccc1O)c1ccccc1`, for which the pIC50 is 4.70.

On to `CCCCOCCCNc1ncnc2c1[nH]c1ccccc12`, for which the pIC50 is 4.15.

As to `Nc1cc2c3c(cccc3c1)C(=O)N(CCN1CCCC1)C2=O`, the pIC50 was 4.08.

For the molecule `C#CCOCCOCCOCCNc1nc(N2CCN(C(=O)CCCCCCCCCCNC(=O)[C@H](CCCCN)n3cc(C[C@@H](C)CC)nn3)CC2)nc(N2CCN(C(=O)CCCCCCCCCCNC(=O)[C@H](CCCN=C(N)N)n3cc(C[C@@H](C)CC)nn3)CC2)n1`, the pIC50 was 4.48.

On to `Cc1cc(NC(=O)c2ccccc2)sc1C`, for which the pIC50 was 4.21.

`CN1CCN(C2Cc3cc(Cl)ccc3Sc3cc(F)ccc32)CC1` (stereo not given): the negative-log IC50 (pIC50) is 4.46.

On to `CCCCN(CCCC)C(=O)c1cn(CC)c2cc(N3CCN(C)CC3)c(F)cc2c1=O`, for which the pIC50 is 5.37.

In the case of `Cc1cc(N/N=C/c2ccc(F)cc2)nc(NCc2ccccc2)n1`, the pIC50 is 4.26.

With `COc1ccccc1N1CCN(Cc2ccc(O)c3ncccc23)CC1`, the pIC50 was 4.42.

Take `CN(C)c1ccc(O)c2c1CC1CC3C(N(C)C)C(=O)C(C(N)=O)=C(O)[C@@]3(O)C(=O)C1=C2O` (stereo not given in full): the pIC50 is 5.05.

As for `C[C@H]1c2cccc(O)c2C(O)=C2C(=O)[C@]3(O)C(O)=C(C(N)=O)C(=O)[C@@H](N(C)C)C3[C@@H](O)C21` (stereo not given in full), the negative-log IC50 (pIC50) is 5.72.

Take `O=C(c1ccccc1)c1c2c(cc3sc4ccccc4[n+]13)-c1cccc3cccc-2c13`: the pIC50 is 4.45.

On to `COc1ccc(C(=O)NNC(=S)NC(=O)c2ccccc2)cc1`, for which the pIC50 is 4.00.

For `O=C(N/N=C/c1ccc([N+](=O)[O-])s1)c1cccnc1`, the pIC50 is 4.62.

Regarding `CN1CCN(C2=Cc3cc(Cl)ccc3Sc3cc(F)ccc32)CC1`, the pIC50 is 4.35.

For the molecule `O=C(CSC1=NC(=O)C(c2ccccc2)C(=O)N1)Nc1cccc(Cl)c1` (stereo not given), the pIC50 is 4.36.

Regarding `CC1=C([N+](=O)[O-])C(c2cccc(Br)c2)C2=C(N1)c1ccccc1C2=O` (stereo not given), the pIC50 was 4.74.

Regarding `CCCCCCCNC(=O)C1(CC2CC(c3cccc(Br)c3)=NO2)CCNCC1` (stereo not given), the pIC50 is 4.27.

Take `Nc1nnc(-c2cccc(Cl)c2Cl)c(N)n1`: the negative-log IC50 (pIC50) was 4.18.

As to `Cn1c(SCC(=O)N/N=C/c2ccc([N+](=O)[O-])s2)nnc1-c1ccc(Cl)cc1`, the negative logarithm of the IC50 (pIC50) is 4.45.

Regarding `S=C(Nc1cc(Cl)cc(Cl)c1)NC1CCN(Cc2ccccc2)CC1`, the pIC50 is 4.09.

Regarding `CN1CCC(OC(=O)c2ccc(Br)cc2)CC1`, the pIC50 is 4.18.

For the molecule `NC1=C(Br)C(=O)c2ccccc2C1=O`, the negative logarithm of the IC50 (pIC50) was 4.59.

Turning to `C(=N/Nc1nccs1)/c1cccnc1`, the pIC50 was 4.33.

`Fc1ccccc1CSc1ccc(-c2ccco2)nn1`: the pIC50 is 3.87.

For the molecule `O=c1[nH][nH]c(-c2ccccc2O)c1C(C[N+](=O)[O-])c1ccc(Br)cc1` (stereo not given), the pIC50 is 4.04.

As for `Nc1nonc1C(=O)N/N=C/c1cc(Br)ccc1O`, the pIC50 was 4.98.

Regarding `NC(N)=N/N=C/c1ccc(OCc2ccc(Cl)cc2)cc1`, the pIC50 is 4.45.

Regarding `Cc1cccc2c1Sc1ccc(Cl)cc1CC2N1CCNCC1` (stereo not given), the pIC50 was 4.11.

In the case of `CCN(CC)CCn1c(=N)n(CC(O)COc2cccc(C)c2)c2ccccc21` (stereo not given), the pIC50 is 3.87.

For `Cc1ccc2nc(N(CCCN(C)C)C(=O)c3sc4ccccc4c3Cl)sc2c1`, the negative logarithm of the IC50 (pIC50) is 4.45.

Regarding `Oc1ccc(C[C@@H]2CNCCN2CCCCC2CCCCC2)cc1`, the pIC50 was 4.33.

Regarding `N/C(=N\OS(=O)(=O)c1ccc(Cl)cc1)c1cccnc1`, the pIC50 was 4.58.

For `CCN(CCNCC(O)COc1ccccc1C(C)C)c1cccc(C)c1` (stereo not given), the pIC50 was 4.49.

`Oc1cccc(Nc2nc(NCC3CCCO3)c3ccccc3n2)c1` (stereo not given): the pIC50 was 4.72.

Regarding `CCOC(=O)C1=C(O)c2ccccc2C(=O)/C1=C\c1ccc(C)cc1`, the pIC50 is 3.85.

Regarding `Cc1ccc(NC(=O)c2ccc([N+](=O)[O-])o2)c(C)c1`, the pIC50 was 4.12.

On to `COc1c(N2CCN[C@H](C)C2)c(F)cc2c(=O)c(C(=O)O)cn(C3CC3)c12`, for which the pIC50 was over 6.64.

On to `O=[N+]([O-])c1cccc(NNS(=O)(=O)c2ccccc2F)c1`, for which the pIC50 is 5.22.

As to `CCCCOc1ccc(NC2=NC3(CCCCC3)N=C(N)N2)cc1`, the negative-log IC50 (pIC50) was 5.19.

As for `Cc1cc(C)c2c(N)c3ccccc3nc2n1`, the pIC50 is 4.11.

Take `O=C(N/N=C/c1ccccn1)c1cccs1`: the pIC50 was 4.15.

For `C[C@H]1COc2c(C3(N)CC3)c(F)cc3c(=O)c(C(=O)O)cn1c23`, the negative-log IC50 (pIC50) was over 6.64.

Consider `CN1CCN(c2ccc(NC(=O)c3ccc(-c4ccc(Br)cc4)o3)cc2)CC1`, for which the negative logarithm of the IC50 (pIC50) was 4.54.

`O=S1(=O)Nc2c(ccc3cccnc23)-c2ccccc21`: the pIC50 was 5.66.

Consider `Cc1c(N=Cc2cc(Br)cc(Br)c2O)cccc1C(=O)O`, for which the pIC50 is 4.39.

Regarding `COc1cc(CNCCO)cc(Cl)c1OCc1ccc(Cl)cc1Cl`, the negative logarithm of the IC50 (pIC50) is 4.42.

Turning to `COc1cc2c3cc1Oc1cc(ccc1O)C[C@@H]1c4c(cc(OC)c(O)c4Oc4ccc(cc4)C[C@H]3N(C)CC2)CCN1C`, the pIC50 was 3.84.

Regarding `CCOC(=O)N1CCN(Cc2cc(Cl)c3cccnc3c2O)CC1`, the pIC50 was 4.21.

With `CCOc1ccc(Nc2nc(NCC3CCCO3)c3ccccc3n2)cc1` (stereo not given), the pIC50 was 5.48.

For the molecule `COc1c(N2CCNC(C)C2)c(F)cc2c(=O)c(C(=O)O)cn(C3CC3)c12` (stereo not given), the pIC50 is 6.54.

On to `CN1CCN(C(c2ccc(Br)cc2)c2cc(Cl)c3cccnc3c2O)CC1` (stereo not given), for which the pIC50 was 4.17.

In the case of `Cc1ccc(-c2c[n+](Cc3ccc(Cl)c(Cl)c3)c3n2CCC3)cc1`, the pIC50 was 4.48.

Consider `COc1ccc(N2CC(C(=O)N/N=C/c3cc([N+](=O)[O-])ccc3O)CC2=O)cc1` (stereo not given), for which the pIC50 was 3.87.

Regarding `CC(C)(c1ccccc1)c1ccc(OCCCNCCO)cc1`, the pIC50 was 4.14.

Take `O=C(Nc1ccc([N+](=O)[O-])cc1Cl)c1cc(Cl)ccc1O`: the negative logarithm of the IC50 (pIC50) was 3.91.

With `CN1CC(C(=O)c2ccc(Cl)cc2)C(c2ccc(Cl)cc2Cl)C1` (stereo not given), the pIC50 was 4.43.

On to `NC(N)=N/N=C/c1ccc(OCc2ccccc2Cl)cc1`, for which the pIC50 is 4.51.

Turning to `Clc1ccc(OCCCNCc2ccccc2)c(Br)c1`, the pIC50 is 4.42.

Take `C/C(=N\N=C(N)N)c1ccc(Cl)c(Cl)c1`: the pIC50 was 4.11.

Regarding `CCCCCC[N+](C)(C)CC/C=C1/c2ccccc2Sc2ccc(Cl)cc21`, the pIC50 was 4.42.

As to `Cc1ccc(-n2c(-c3ccc(Br)cc3)c[n+]3c2CCc2ccc4cccnc4c2-3)cc1`, the pIC50 was 4.21.

As to `CC1CCN(CCCNC(=O)c2ccc3c(=O)n(Cc4ccc(Cl)cc4)c(=S)[nH]c3c2)CC1`, the pIC50 is 4.35.

Regarding `O=C1C=C(Nc2ccccc2O)c2ccccc2C1=O`, the pIC50 is 4.26.

For `CN1CCN(C2=Cc3ccccc3Sc3cc(F)c(Cl)cc32)CC1`, the pIC50 is 4.48.

Regarding `OC(CNCc1ccco1)Cn1c2ccc(Br)cc2c2cc(Br)ccc21` (stereo not given), the pIC50 was 4.68.

Take `OCCN1CCN(CCCN2c3ccccc3Sc3ccc(Cl)cc32)CC1`: the pIC50 is 4.16.

For `COc1cccc(Nc2nc(NCCO)c3ccccc3n2)c1`, the pIC50 is 4.70.

Consider `CO[C@@]1(NC(=O)C2SC(=C(C(N)=O)C(=O)O)S2)C(=O)N2C(C(=O)O)=C(CSc3nnnn3C)CS[C@@H]21` (stereo not given in full), for which the negative logarithm of the IC50 (pIC50) was 5.03.

With `Cc1nc2ccccn2c1C(=O)N/N=C/c1ccc([N+](=O)[O-])o1`, the pIC50 was 4.35.

Consider `Fc1ccc(CCNCc2ccc(Cl)c(Cl)c2)cc1`, for which the pIC50 was 4.43.

For `CS(=O)(=O)c1ccc([C@@H](O)[C@@H](CO)NC(=O)C(Cl)Cl)cc1`, the pIC50 is 4.48.

In the case of `C#CCOCCOCCOCCNc1nc(N2CCN(C(=O)[C@H](Cc3cc4ccccc4[nH]3)n3cc([C@@H](N)CC(C)C)nn3)CC2)nc(N2CCN(C(=O)[C@H](Cc3cc4ccccc4[nH]3)n3cc([C@@H](N)CC(C)C)nn3)CC2)n1`, the pIC50 is 4.40.
